“And” between values parts separate entries of the source, which are not always exact repeats. Equal entries are not always repeated.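 Five concentrations, 48 hours, 96-well plates. GI50 marks 50% less growth. Definition used: TGI = concentration required for complete inhibition of growth.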
system: MDA-MB-468 breast; experiment: inhibition of tumour cell growth, NCI panel, 48 h

| Compound | GI50 | TGI |
| --- | --- | --- |
| CN(C)c1ccc(C(=C2C=CC(=[N+](C)C)C=C2)c2ccccc2Cl)cc1 | 220 nM | 655 nM |
| CCN(Cc1cccc(F)c1F)c1ccc(CO)c(Cl)c1 | < 12.5 nM | 35 nM |
| Cn1c2ccccc2c2nnc(NNCc3ccccn3)nc21 | 268 nM | 1160 nM |
| COc1ccc(Oc2cc(NCCC(F)(F)F)c3ncc(-c4ccc(C(=O)NC5CC5)c(C)c4)n3n2)c(F)c1F | 3650 nM | > 100000 nM |
| COC(=O)/C(=C\c1c(-c2ccccc2)[nH]c2ccccc12)S(C)(=O)=O | 5400 nM | 84800 nM |
| Brc1ccc2[nH]cc(-c3nn4cc(-c5nccs5)nc4s3)c2c1 | 3260 nM | 18300 nM |
| COc1ccc(-c2nc(-c3nc4ccc(C(F)(F)F)cc4[nH]3)c3ccccn23)cc1 | 13400 nM | > 100000 nM |
| COc1cc(NC(C)CCCN)c2ncccc2c1Sc1ccc(Cl)cc1 (configuration not stated) | 1700 nM | 3110 nM |
| Oc1c(CNCCNCc2cc(Cl)cc(Cc3ccccc3)c2O)cc(Cl)cc1Cc1ccccc1 | 307 nM | 4430 nM |
| CNC(=O)c1cc2c(Oc3ccc(NC(=S)NC(=O)Cc4ccccc4)cc3F)ccnc2cc1OC | > 29900 nM | > 100000 nM |
| Oc1ccccc1C=Nc1ccccc1N=Cc1ccccc1O.[Cu+2] | 1730 nM | 13500 nM |
| COc1ccc2nccc(/C=C/c3ccnc4ccc(OC)cc34)c2c1 | > 100000 nM | > 100000 nM |
| COc1ccc(/C(=N/O)c2cc(OC)c(OC)c(OC)c2)c(OC)c1N | 3540 nM | > 100000 nM |
| O=C(c1ccccc1O)c1[nH]c(Cl)c(Cl)c1-n1c(C(=O)c2ccccc2O)cc(Cl)c1Cl | 436 nM and 339 nM | 6530 nM and 10400 nM |
| C[C@]12CC[C@@H]3c4ccc(O)cc4CC[C@H]3[C@@H]1CC[C@@H]2NS(=O)(=O)c1ccc2ccccc2c1 | 3620 nM | 15200 nM |
| N=C(N)SCc1ccc([N+](=O)[O-])cc1[N+](=O)[O-] | 2520 nM | 8550 nM |
| CN(C)c1ccc(/C=N/NC(=O)c2cccc3ccccc23)c(Cl)c1 | 311 nM | 2570 nM |
| CC(=O)/C(=C\c1c(-c2ccccc2)[nH]c2ccccc12)S(=O)(=O)c1ccccc1 | 987 nM | 14800 nM |
| Cc1ncc(-c2ccnc(Nc3ccc(S(C)(=O)=O)cc3)n2)n1C(C)C | 1120 nM | 2930 nM |
| COC(=O)[C@@H](OC)[C@@H]1Cc2cc3cc(OC4CC(OC5CC(O)C(O)C(C)O5)C(O)C(C)O4)c(C)c(O)c3c(O)c2C(=O)[C@H]1OC1CC(OC2CC(OC3CC(C)(O)C(O)C(C)O3)C(O)C(C)O2)C(O)C(C)O1 (some centres not stated) | 28.3 nM | 71.3 nM |
| COc1ccc(/C=N\NC(=O)c2ccc3nc(-c4ccc(Br)cc4)[nH]c3c2)cc1 | 2750 nM | 5970 nM |

| Compound | GI50 | TGI |
| --- | --- | --- |
| COc1ccc(C(=O)OC2C(OC3C(O)COC(O[C@H]4C[C@H]5[C@@H]6CC=C7C[C@@H](O)CC[C@]7(C)[C@H]6CC[C@]5(C)[C@H]4[C@H](C)C(=O)CCC(C)C)C3OC(C)=O)OCC(O)C2O)cc1 (some centres not stated) | 6.66 nM | 1530 nM |
| CNCCCn1c2c(c3ccc(F)cc3c1=O)C(=O)c1cc(OC)cnc1-2 | 220 nM | 660 nM |
| O=Nc1c(O)c2ccccc2c2ccccc12 | 1810 nM | 3730 nM |
| CSc1nc(N)c2c(n1)NC(c1ccccc1)C1CCc3ccccc3C1=N2 (configuration not stated) | 84400 nM | > 100000 nM |
| O=C(Nc1cccc(-n2cc(-c3ccncc3)c(-c3ccc(O)c(Cl)c3)n2)c1)c1ccc(Cl)c(Cl)c1 | 16200 nM | > 100000 nM |
| FC(F)(F)c1[nH]ncc1-c1nc2ccc3[nH]ncc3c2c2c1CCCC2 | 1860 nM | 4670 nM |
| CN1CCN(c2ccc(C(=O)Nc3cccc(C#Cc4cccc5[nH]nc(N)c45)c3)cc2C(F)(F)F)CC1 | 821 nM | 2390 nM |
| CC(=O)c1ccc2c(c1)N(CCCN(C)C)c1ccccc1S2 | 10400 nM | 22800 nM |
| Cc1cc(O)cc(C)c1/C=C/c1cncc(C(=O)OC(C)(C)C)c1 | 8410 nM | > 25000 nM |
| COc1cc(C2C3=C(COC3=O)Nc3cc4c(cc32)OCO4)cc2c1OCO2 (configuration not stated) | 55.9 nM | 242 nM |
| CN(C)CCOc1ccc(-c2cc(-c3ccc4c(c3)CC/C4=N\O)c(-c3ccncc3)o2)cc1 | 2800 nM | 6170 nM |
| CC/C=C\C[C@H](O)C/C=C1/C(=O)C=C[C@@H]1C/C=C\CCCC(=O)NC | 940 nM | 2510 nM |
| CC1(C)N=C(N)N=C(N)N1c1ccc(Cl)c(Cl)c1 | 337 nM | > 57500 nM |
| CCN1C(=O)N(CC)C2C1NN=c1s/c(=C\c3cccc([N+](=O)[O-])c3)c(=O)n12 (configuration not stated) | 375 nM | > 100000 nM |
| CCCCCSC1C2C(=O)C(Br)=CC13CCNc1c(O)c4c5c(c13)=[N+]2CCC=5C=N4 (configuration not stated) | 390 nM | 1090 nM |
| Cc1cc2c(cc1C)[n+](Cc1ccc3ccccc3n1)cn2Cc1ccc2ccccc2n1 | 444 nM | 1950 nM |
| CC1(C)CC(=O)c2c(ccc(C(=O)C[C@@H](N)CO)c2N)O1 | 561 nM | 6880 nM |
| Clc1ccc(N2CCC(N3CCCC3)CC2)cc1-c1nc2ccccc2[nH]1 | 12100 nM | 26300 nM |
| COc1ccc2[nH]c(O)c(/C=c3/ccc4c(c3)N=C(c3ccc(F)cc3)N=4)c2c1 | 4140 nM | 22300 nM |
| O=C(COc1ccc(-c2nc3cc(Cl)c(Cl)cc3[nH]2)cc1)N=Nc1c(O)[nH]c2ccccc12 | 2600 nM | 6230 nM |
